Measured values taken from paper PMC9221018, “Sulfonamide-Derived Dithiocarbamate Gold(I) Complexes Induce the Apoptosis of Colon Cancer Cells by the Activation of Caspase 3 and Redox Imbalance” (Biomedicines, 2022).
Like-named read-outs stand apart in the source and are kept apart here.

Experiments:
[1] = tested on: Caco-2 cells; test: MTT cytotoxicity assay in undifferentiated Caco-2 cells; assay type: cell-based, human
Method: The human Caco-2 cell line (TC7 clone) was kindly provided by Dr. Edith Brot-Laroche (Université Pierre et Marie Curie-Paris 6, UMR S 872, Les Cordeliers, France). Human epithelial fibroblast cells (NHDF-Ad, Lonza®®, Porriño, Spain) were kindly provided by Dr. Gracia Mendoza (Aragon Health Research Institute, IIS Aragón, Spain). Caco-2 cells (passages 40–70) and fibroblasts (passages 10–30) were maintained in a humidified atmosphere of 5% CO2 at 37 °C and grown in medium following the method used by Quero et al.. The Caco-2 cells were sub-cultured in 25 cm^2 plastic flasks at a density of 1.2 × 10^4 cells/cm^2, while the fibroblasts were sub-cultured on 75 cm^2 plastic flasks at a density of 1 × 10^4 cells/cm^2. The culture medium was replaced every 2 days.
The gold complexes were diluted in dimethyl sulfoxide (DMSO) as a 10 mM stock solution, and then diluted in cell culture medium at the desired concentrations.
For the cytotoxicity screening assays, Caco-2 cells were seeded in 96-well plates at a density of 4 × 10^3 cells/well. The culture medium was replaced with medium containing the drug panel 24 h post-seeding, and the cells were incubated for 24, 48 and 72 h. […] In differentiated Caco-2 and fibroblasts, culture medium containing metal gold complexes was added 15 days post-seeding, and the cells were incubated for 72 h. The antiproliferative effect was measured using an MTT assay, as previously described by Mármol et al.. The absorbance at 540/620 nm was measured using a SPECTROstar Nano (BMG Labtech, Ortenberg, Germany). In order to determine the selectivity index (SI), the IC50 value of the differentiated Caco-2 cells was divided by IC50 value in undifferentiated Caco-2, obtaining the ratio of the normal/cancerous cells’ toxicity.

[2] = n-octanol-water distribution coefficient, shake-flask method; assay type: physicochemical; settings: n-octanol/buffered saline pH 7.4, shake-flask
Method: The n-octanol−water coefficients of the complexes were determined using a shake-flask method, as reported previously. Briefly, 100 mL buffered-saline (0.15 M NaCl, 10 mM phosphate [PO4^3−] buffer, pH 7.4) and 100 mL n-octanol were shaken for 72 h. The addition of 1 mg of the complexes followed by the centrifugation and separation of both phases gave two solutions, which were analysed by UV absorbance spectroscopy to determine their concentration in each phase. The corresponding value of log P was defined as log{[compound(organic)]/[compound(aqueous)]}.

[3] = tested on: caspase-3; test: Determination of active caspase 3 by flow cytometry; assay type: cell-based, human; settings: Caco-2; complex 1 1.14 µM 48 h, complex 8 7.22 µM 72 h
Method: (§1) Caco-2 cells were seeded in a 75 cm^2 flask at a density of 1 × 10^4 cells/cm^2; 24 h later, they were exposed to the drug panel for 48 or 72 h. Then, the cells were collected and processed as previously described. Finally, 50 µL of every sample was incubated with 5 µL anti-active caspase-3 (BD Pharmigen, San Diego, CA, USA, Clone C92-605) and 5 µL p53 antibody (Miltenyi, Auburn, CA, USA, Clone REA609). The fluorescence was measured by flow cytometry using a Beckman Coulter Gallios (Brea, CA, USA) equipped with a blue solid diode laser (488 nm) and a red solid diode laser (635 nm). For the caspase-3 determination, the excitation wavelength was set at 488 nm and the emission was set at 525 nm; for the p53 analysis, the excitation was set at 635 nm and the emission was set at 660 nm.

[4] = tested on: p53; test: Determination of p53 protein by flow cytometry; assay type: cell-based, human; settings: Caco-2; complex 1 1.14 µM 48 h, complex 8 7.22 µM 72 h
Method: as §1

[5] = target: T1, recombinant human carbonic anhydrase IX (Homo sapiens, UniProt Q16790); test: Carbonic anhydrase IX esterase activity assay (4-NPA); assay type: biochemical; settings: 30 μM, 5 min incubation
T1 construct: purchased Sigma SRP6483
Method: The in vitro effect of metal complexes on the enzyme carbonic anhydrase IX was analyzed by monitoring conversion of 4-nitrophenyl acetate (4-NPA) to 4-nitrophenol. The tests were carried out in 96-well plates. Gold complexes (4 µL) were incubated with 4 µL recombinant human carbonic anhydrase IX (Sigma SRP6483, St Louis, MO, USA) (50 µg/mL) at 25 °C for 5 min. PBS at pH 7.35 (Sigma D1408, St Louis, MO, USA) was added to reach a final volume of 90 µL. The reaction was started by adding 10 µL 4-NPA (0.5 mM in methanol), and the absorbance at 405 nm was monitored every 30 s for 1 h using a SPECTROstar Nano (BMG Labtech, Ortenberg, Germany) multiplate reader. The results were expressed as a percentage of CA-IX activity with respect to the control. The potency of the inhibtion referred to the incubation in the presence of indisulam (E7070, N-(3-chloro-7-indolyl)-1,4-benzenedisulfonamide) (Sigma SML1225, St Louis, MO, USA), which is a specific inhibitor of carbonic anhydrase isoforms IX and XII.

[6] = tested on: Caco-2 cells; test: Intracellular ROS levels, dichlorofluorescein assay; assay type: cell-based, human; settings: Caco-2, different concentrations, 1, 3 and 24 h
Method: After the Caco-2 cells were seeded in a 96-well plate at a density of 4 × 10^3 cells/well, the intracellular ROS levels were determined with a dichlorofluorescein assay, following the protocol used by Quero et al.. The cells were exposed to the drug panel for 1, 3 and 24 h, and then incubated with 20 µM 2′-7′-dichlorofluorescein diacetate (DCFH-DA) (Merck KGaA, Darmstadt, Germany) in DMEM. The generation of oxidized derivative DCF was monitored by measuring the increase of the fluorescence for 1 h, at an emission wavelength of 520 nm and an excitation of 485 nm, using a FLUOstar Omega (BMG Labtech, Ortenberg, Germany) multiplate reader. The results were expressed as percentage of the fluorescence with respect to the control, considering the fluorescence intensity as a reflection of the intracellular ROS levels.

[7] = 24 h incubation, read-out: IC50 24 h
[8] = 48 h incubation, read-out: IC50 48 h
[9] = 72 h incubation, read-out: IC50 72 h
[10] = treatment for 72 h, read-out: IC50

Row | Molecule | IC50 [1, 7] [nM] | IC50 [1, 8] [nM] | IC50 [1, 9] [nM] | IC50 [1, 10] [nM] | Log P7.4 [2] | percentage of cells with active caspase-3 [3] | cells with active p53 [4] | reduction in the esterase activity of CA [5] [%] | intracellular ROS levels [6]
1 | O=S(=O)(NC(=S)[S][Au][PH](c1ccccc1)(c1ccccc1)c1ccccc1)c1ccccc1 [Complex 1, [Au(S2CNHSO2C6H5)(PPh3)]] | 1920 ± 130 | 1380 ± 210 | 1140 ± 250 | 1140 ± 250 | 0.75 | increased the percentage of cells with active caspase-3 | significant increase in cells with active p53 | 48 | time- and concentration-dependent pro-oxidant effect
2 | [Au(S2CNHSO2-p-Me-C6H4)(IMePropargyl)] [Complex 8] | > 50000 | 37400 ± 7480 | 7220 ± 380 | 7220 ± 380 | −0.13 | increased the percentage of cells with active caspase-3 | significant increase in cells with active p53 | 31 | time- and concentration-dependent pro-oxidant effect
